In patent US10548877B2, “Aromatic ring compound” (TAKEDA PHARMACEUTICAL COMPANY LIMITED, priority 2016, dated 2020):

Target: T1, human M1 receptor (hCHRM1) (Homo sapiens, UniProt P11229)
T1 construct: expressed in transfected cells
T1 sequence (P11229 1-460): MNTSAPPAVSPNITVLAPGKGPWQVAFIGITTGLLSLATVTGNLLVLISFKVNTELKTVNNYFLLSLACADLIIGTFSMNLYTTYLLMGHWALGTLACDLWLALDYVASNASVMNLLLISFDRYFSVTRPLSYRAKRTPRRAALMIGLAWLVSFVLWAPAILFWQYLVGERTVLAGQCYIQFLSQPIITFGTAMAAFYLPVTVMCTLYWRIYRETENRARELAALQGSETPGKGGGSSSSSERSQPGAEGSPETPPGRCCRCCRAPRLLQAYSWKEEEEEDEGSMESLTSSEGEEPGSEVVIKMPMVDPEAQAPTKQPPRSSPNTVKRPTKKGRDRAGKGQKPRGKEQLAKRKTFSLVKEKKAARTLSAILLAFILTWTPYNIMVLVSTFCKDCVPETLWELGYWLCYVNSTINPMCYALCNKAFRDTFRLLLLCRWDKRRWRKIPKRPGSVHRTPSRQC
Assay: Measurement of M1 receptor positive allosteric modulator (M1PAM) activity (calcium fluorescence, Fluo-4)
Assay type: cell-based
Details: for EC50: inflection point of concentration-dependent curve, CHO-K1 cells stably expressing hCHRM1, in presence of acetylcholine at EC20 (final 0.8-1.0 nM), read-out: IP value; for activity (%) at 10 μM: test compound 10 μM with acetylcholine at EC20, 100% = 1 μM acetylcholine, 0% = DMSO, CHO-K1 cells expressing hCHRM1
Procedure: Measurement of M1 Receptor Positive Allosteric Modulator (M1PAM) Activity
The activity of a test compound in the presence of acetylcholine at EC20 concentration (final concentration 0.8-1.0 nM), which affords an action corresponding to about 20% of the maximum activity, was measured as PAM activity. The method is as follows. CHO-K1 cells stably expressing a human M1 receptor (hCHRM1) were plated on a 384-well black clear bottom plate (BD Falcon) at 5,000 cells/well, and cultured in an incubator at 37° C., 5% CO2 for 1 day. The medium in the cell plate was removed, and assay buffer A containing a calcium indicator (Recording medium (DOJINDO LABORATORIES), 0.1% BSA (Wako Pure Chemical Industries, Ltd.), 2.5 μg/mL Fluo-4 AM (DOJINDO LABORATORIES), 0.08% Pluronic F127 (DOJINDO LABORATORIES) and 1.25 mM probenecid (DOJINDO LABORATORIES) were added at 30 μL/well. The cells were left standing in the incubator at 37° C., 5% CO2 for 30 min, and further left standing at room temperature for 30 min. A test compound prepared by diluting with assay buffer B (HBSS (Invitrogen), 20 mM HEPES (Invitrogen), 0.1% BSA) containing 3.2-4.0 nM acetylcholine was added at 10 μL/well, and the fluorescence was measured by FDSS/pcell (Hamamatsu Photonics K.K.) for 1 min every for 1 second. With the definition that the amount of change in the fluorescence on addition of acetylcholine (final concentration 1 μM) is 100% and that on addition of DMSO instead of a test compound is 0%, the activity (%) of the test compound was calculated, and the inflection point in the concentration-dependent curve of the test compound was calculated as IP values.

Structure (SMILES): COc1c(C(=O)N[C@H]2COCC[C@@H]2O)cc(Cc2ccc(-c3ccn(C)n3)cc2)c(C)c1C [Example 26, 1,5-anhydro-2,4-dideoxy-2-((2-methoxy-3,4-dimethyl-5-(4-(1-methyl-1H-pyrazol-3-yl)benzyl)benzoyl)amino)-L-threo-pentitol]
- EC50: 31 nM
- activity (%) at 10 μM: 99%

Structure (SMILES): Cc1c(Cc2ccc(-c3cn(C)nn3)cc2)cc(C(=O)N[C@H]2CCCC[C@@H]2O)c(OCC2CC2)c1C [Example 17, 2-(cyclopropylmethoxy)-N-((1S,2S)-2-hydroxycyclohexyl)-3,4-dimethyl-5-(4-(1-methyl-1H-1,2,3-triazol-4-yl)benzyl)benzamide]
- EC50: 40 nM
- activity (%) at 10 μM: 99%

Structure (SMILES): COc1c(C(=O)NCC2CCCO2)cc(Cc2ccc(-c3cn(C)nn3)cc2)c(C)c1C (stereo not shown) [Example 6, 2-methoxy-3,4-dimethyl-5-(4-(1-methyl-1H-1,2,3-triazol-4-yl)benzyl)-N-(tetrahydrofuran-2-ylmethyl)benzamide]
- EC50: 23 nM
- activity (%) at 10 μM: 107%

Structure (SMILES): COc1c(C(=O)N[C@H]2CCC[C@@H]2O)cc(Cc2ccc(-n3cccn3)cc2)c(C)c1C (relative stereo) [Example 2, N-(trans-2-hydroxycyclopentyl)-2-methoxy-3,4-dimethyl-5-(4-(1H-pyrazol-1-yl)benzyl)benzamide]
- EC50: 95 nM
- activity (%) at 10 μM: 96%

Structure (SMILES): COc1c(C(=O)N[C@H]2CCC[C@@H]2O)cc(Cc2ccc(-c3cn(C)nn3)cc2)c(C)c1C (relative stereo) [Example 4, N-(trans-2-hydroxycyclopentyl)-2-methoxy-3,4-dimethyl-5-(4-(1-methyl-1H-1,2,3-triazol-4-yl)benzyl)benzamide]
- EC50: 23 nM
- activity (%) at 10 μM: 108%

Structure (SMILES): CCOc1c(C(=O)N[C@H]2CCCC[C@@H]2O)cc(Cc2ccc(-c3cn(C)nn3)cc2)c(C)c1C [Example 15, 2-ethoxy-N-((1S,2S)-2-hydroxycyclohexyl)-3,4-dimethyl-5-(4-(1-methyl-1H-1,2,3-triazol-4-yl)benzyl)benzamide]
- EC50: 14 nM
- activity (%) at 10 μM: 100%

Structure (SMILES): COc1c(C(=O)N[C@H]2COCC[C@@H]2O)cc(Cc2ccc(-n3cccn3)cc2)c(C)c1C [Example 27, 1,5-anhydro-2,4-dideoxy-2-((2-methoxy-3,4-dimethyl-5-(4-(1H-pyrazol-1-yl)benzyl)benzoyl)amino)-L-threo-pentitol]
- EC50: 39 nM
- activity (%) at 10 μM: 100%

Structure (SMILES): COc1c(C(=O)N[C@H]2CCCC[C@@H]2O)cc(Cc2ccc(-n3ccnn3)cc2)c(C)c1C [Example 14, N-((1S,2S)-2-hydroxycyclohexyl)-2-methoxy-3,4-dimethyl-5-(4-(1H-1,2,3-triazol-1-yl)benzyl)benzamide]
- EC50: 8.6 nM
- activity (%) at 10 μM: 98%

Structure (SMILES): Cc1c(Cc2ccc(-c3cn(C)nn3)cc2)cc(C(=O)N[C@H]2CCCC[C@@H]2O)c(OC(C)C)c1C [Example 16, N-((1S,2S)-2-hydroxycyclohexyl)-2-isopropoxy-3,4-dimethyl-5-(4-(1-methyl-1H-1,2,3-triazol-4-yl)benzyl)benzamide]
- EC50: 30 nM
- activity (%) at 10 μM: 99%

Structure (SMILES): COc1c(C(=O)N[C@H]2CCC[C@@H]2O)cc(Cc2ccc(-c3ccn(C)n3)nc2)c(C)c1C [Example 22, N-((1S,2S)-2-hydroxycyclopentyl)-2-methoxy-3,4-dimethyl-5-((6-(1-methyl-1H-pyrazol-3-yl)pyridin-3-yl)methyl)benzamide]
- EC50: 55 nM
- activity (%) at 10 μM: 95%

Structure (SMILES): COc1c(C(=O)N[C@H]2CCCC[C@@H]2O)cc(Cc2ccc(-c3ccn(C)n3)nc2)c(C)c1C [Example 21, N-((1S,2S)-2-hydroxycyclohexyl)-2-methoxy-3,4-dimethyl-5-((6-(1-methyl-1H-pyrazol-3-yl)pyridin-3-yl)methyl)benzamide]
- EC50: 10 nM
- activity (%) at 10 μM: 96%

Structure (SMILES): COc1c(C(=O)N[C@@H]2CCCC[C@H]2O)cc(Cc2ccc(-c3cn(C)nn3)cc2)c(C)c1C (single isomer, unassigned) [Example 11, N-(trans-2-hydroxycyclohexyl)-2-methoxy-3,4-dimethyl-5-(4-(1-methyl-1H-1,2,3-triazol-4-yl)benzyl)benzamide]
- EC50: 37 nM
- activity (%) at 10 μM: 97%

Structure (SMILES): COc1c(C(=O)N[C@H]2COCC[C@@H]2O)cc(Cc2ccc(-c3cn(C)nc3C)cc2)c(C)c1C [Example 29, 1,5-anhydro-2,4-dideoxy-2-((5-(4-(1,3-dimethyl-1H-pyrazol-4-yl)benzyl)-2-methoxy-3,4-dimethylbenzoyl)amino)-L-threo-pentitol]
- EC50: 48 nM
- activity (%) at 10 μM: 97%

Structure (SMILES): Cc1c(Cc2ccc(-n3cccn3)nc2)cc(C(=O)N[C@H]2CCCC[C@@H]2O)c(F)c1C [Example 20, 2-fluoro-N-((1S,2S)-2-hydroxycyclohexyl)-3,4-dimethyl-5-((6-(1H-pyrazol-1-yl)pyridin-3-yl)methyl)benzamide]
- EC50: 31 nM
- activity (%) at 10 μM: 97%

Structure (SMILES): COc1c(C(=O)N[C@H]2CCOC[C@@H]2O)cc(Cc2ccc(-c3cn(C)nn3)cc2)c(C)c1C [Example 24, 1,5-anhydro-2,3-dideoxy-3-((2-methoxy-3,4-dimethyl-5-(4-(1-methyl-1H-1,2,3-triazol-4-yl)benzyl)benzoyl)amino)-L-threo-pentitol]
- EC50: 2.6 nM
- activity (%) at 10 μM: 95%

Structure (SMILES): Cc1c(Cc2ccc(-c3cscn3)cc2)cc(C(=O)N[C@H]2COCC[C@@H]2O)c(F)c1C [Example 32, 1,5-anhydro-2,4-dideoxy-2-((2-fluoro-3,4-dimethyl-5-(4-(1,3-thiazol-4-yl)benzyl)benzoyl)amino)-L-threo-pentitol]
- EC50: 16 nM
- activity (%) at 10 μM: 101%

Structure (SMILES): Cc1c(Cc2ccc(-n3cccn3)nc2)cc(C(=O)N[C@H]2CCC[C@@H]2O)c(F)c1C [Example 19, 2-fluoro-N-((1S,2S)-2-hydroxycyclopentyl)-3,4-dimethyl-5-((6-(1H-pyrazol-1-yl)pyridin-3-yl)methyl)benzamide]
- EC50: 84 nM
- activity (%) at 10 μM: 93%

Structure (SMILES): COc1c(C(=O)N[C@H]2CCCC[C@@H]2O)cc(Cc2ccc(-c3cn(C)nn3)cc2)c(C)c1C (single isomer, unassigned) [Example 10, N-(trans-2-hydroxycyclohexyl)-2-methoxy-3,4-dimethyl-5-(4-(1-methyl-1H-1,2,3-triazol-4-yl)benzyl)benzamide]
- EC50: 4.8 nM
- activity (%) at 10 μM: 106%

Structure (SMILES): COc1c(C(=O)N[C@H]2CCCC[C@@H]2O)cc(Cc2ccc(-c3cn(C)nn3)cc2)c(C)c1C (relative stereo) [Example 5, N-(trans-2-hydroxycyclohexyl)-2-methoxy-3,4-dimethyl-5-(4-(1-methyl-1H-1,2,3-triazol-4-yl)benzyl)benzamide]
- EC50: 12 nM
- activity (%) at 10 μM: 105%

Structure (SMILES): Cc1c(Cc2ccc(-n3cccn3)cc2)cc(C(=O)N[C@H]2COCC[C@@H]2O)c(F)c1F [Example 25, 1,5-anhydro-2,4-dideoxy-2-((2,3-difluoro-4-methyl-5-(4-(1H-pyrazol-1-yl)benzyl)benzoyl)amino)-L-threo-pentitol]
- EC50: 33 nM
- activity (%) at 10 μM: 97%

Structure (SMILES): Cc1c(Cc2ccc(-c3cn(C)nn3)cc2)cc(C(=O)N[C@H]2CCCC[C@@H]2O)c(OC(F)F)c1C [Example 18, 2-(difluoromethoxy)-N-((1S,2S)-2-hydroxycyclohexyl)-3,4-dimethyl-5-(4-(1-methyl-1H-1,2,3-triazol-4-yl)benzyl)benzamide]
- EC50: 27 nM
- activity (%) at 10 μM: 97%

Structure (SMILES): COc1c(C(=O)N[C@H]2COCC[C@@H]2O)cc(Cc2ccc(-c3cn(C)nc3C)nc2)c(C)c1C [Example 28, 1,5-anhydro-2,4-dideoxy-2-((5-((6-(1,3-dimethyl-1H-pyrazol-4-yl)pyridin-3-yl)methyl)-2-methoxy-3,4-dimethylbenzoyl)amino)-L-threo-pentitol]
- EC50: 20 nM
- activity (%) at 10 μM: 100%

Structure (SMILES): COc1c(C(=O)N[C@H]2COCC[C@@H]2O)cc(Cc2ccc(-c3cn(C)nn3)cc2)c(C)c1C [Example 13, N-((3S,4S)-4-hydroxytetrahydro-2H-pyran-3-yl)-2-methoxy-3,4-dimethyl-5-(4-(1-methyl-1H-1,2,3-triazol-4-yl)benzyl)benzamide]
- EC50: 9.4 nM
- activity (%) at 10 μM: 102%
